Data published in patent publication US20080153818A1, “METHODS FOR PREVENTING INFLAMMATION DURING SURGERY” (priority 2006, published 2008).

Tests used:
[1] = system: existing laser-induced choroidal neovascularization (CNV); experiment: Mouse laser-induced CNV, regression of existing CNV, intravitreal injection at day 7; type: in vivo; details: single intravitreal injection
Method: (§1) METHODS. CNV was generated by laser-induced rupture of Bruch's membrane. Briefly, 4 to 5 week old male C57BL/6J mice were anesthetized using intraperitoneal administration of ketamine hydrochloride (100 mg/kg) and xylazine (5 mg/kg) and the pupils of both eyes dilated with topical ocular instillation of 1% tropicamide and 2.5% Mydfin®. One drop of topical cellulose (Gonioscopic®) was used to lubricate the cornea. A hand-held cover slip was applied to the cornea and used as a contact lens to aid visualization of the fundus. Three to four retinal burns were placed in randomly assigned eye (right or left eye for each mouse) using the Alcon 532 nm EyeLite laser with a slit lamp delivery system. The laser burns were used to generate a rupture in Bruch's membrane, which was indicated ophthalmoscopically by the formation of a bubble under the retina. Only mice with laser burns that produced three bubbles per eye were included in the study. Burns were typically placed at the 3, 6, 9 or 12 o'clock positions in the posterior pole of the retina, avoiding the branch retinal arteries and veins.
(§2) Each mouse was randomly assigned into one of the following treatment groups: noninjected controls, sham-injected controls, vehicle-injected mice, or one of three RTKi-injected groups. […]
METHODS. […] Choroidal flat mounts were analyzed as described above in Example 3.

[2] = system: existing laser-induced choroidal neovascularization (CNV); experiment: Mouse laser-induced CNV, regression paradigm, oral gavage from day 7; type: in vivo; details: 3 mg/kg/day oral from day 7
[3] = system: laser-induced choroidal neovascularization (CNV); experiment: Mouse laser-induced CNV, prevention, intravitreal injection; type: in vivo, C57BL/6J mice
Method: as §1, §2

[4] = system: laser-induced choroidal neovascularization (CNV); experiment: Mouse laser-induced CNV, prevention paradigm, oral gavage; type: in vivo; details: for inhibition of CNV (in words): prevention paradigm, 14 days
[5] = system: diabetes-induced retinal vascular permeability (STZ rat model); experiment: STZ diabetic rat retinal vascular permeability, oral gavage; type: in vivo
Method: METHODS. Diabetes was induced in male Long-Evans rats with 65 mg/kg streptozotocin (STZ) after an overnight fast. Upon confirmation of diabetes (blood glucose >250 mg/dl), treatment was initiated by oral gavage. Non-diabetic (NDM) and diabetic (DM) rats received oral gavage of either vehicle or RTK inhibitor at 1.5 or 5 mg/kg/d BID. After 2 weeks, jugular vein catheters were implanted 1 day prior to experimentation for the infusion of indicator dye. Retinal vascular permeability, RVP, was measured using Evan's blue albumin permeation (45 mg/kg) after a 2 hour circulation period.

[6] = system: preretinal neovascularization (NV) in the rat model of oxygen-induced retinopathy (OIR); experiment: Rat oxygen-induced retinopathy (OIR) model, single intravitreal injection; type: in vivo, Sprague-Dawley rats
Source text: METHODS. Pregnant Sprague-Dawley rats were received at 14 days gestation and subsequently gave birth on Day 22±1 of gestation. Immediately following parturition, pups were pooled and randomized into separate litters (n=17 pups/litter), placed into separate shoebox cages inside oxygen delivery chamber, and subjected to an oxygen-exposure profile from Day 0-14 postpartum. Litters were then placed into room air from Day 14/0 through Day 14/6 (days 14-20 postpartum). Additionally on Day 14/0, each pup was randomly assigned as an oxygen-exposed control or into various treatment groups. For those randomized into an injection treatment group: one eye received a 5 μl intravitreal injection of 0.1%, 0.3%, 0.6%, or 1% RTKi and the contralateral eye received a 5 μl intravitreal injection of vehicle. At Day 14/6 (20 days postpartum), all animals in both studies were euthanized.
Immediately following euthanasia, retinas from all rat pups were harvested, fixed in 10% neutral buffered formalin for 24 hours, subjected to ADPase staining, and fixed onto slides as whole mounts. Digital images were acquired from each retinal flat mount that was adequately prepared. Computerized image analysis was used to obtain a NV clockhour score from each readable sample. Each clockhour out of 12 total per retina was assessed for the presence or absence of preretinal NV. […]

[7] = system: preretinal neovascularization (NV) in the rat OIR model; experiment: Rat OIR model, oral gavage; type: in vivo, Sprague-Dawley rats
Method: Immediately following euthanasia, retinas from all rat pups were harvested, fixed in 10% neutral buffered formalin for 24 hours, subjected to ADPase staining, and fixed onto slides as whole mounts. Digital images were acquired from each retinal flat mount that was adequately prepared. Computerized image analysis was used to obtain a NV clockhour score from each readable sample. Each clockhour out of 12 total per retina was assessed for the presence or absence of preretinal NV. Statistical comparisons using median scores for NV clockhours from each treatment group were utilized in nonparametric analyses. Each noninjected pup represented one NV score by taking the average value of both eyes and was used in comparisons against each dosage group. Because the pups were randomly assigned and no difference was observed between oxygen-exposed control pups from all litters, the NV scores were combined for all treatment groups. P≦0.05 was considered statistically significant.
METHODS. Pregnant Sprague-Dawley rats were received at 14 days gestation and subsequently gave birth on Day 22±1 of gestation. Immediately following parturition, pups were pooled and randomized into separate litters (n=17 pups/litter), placed into separate shoebox cages inside oxygen delivery chamber, and subjected to an oxygen-exposure profile from Day 0 to Day 14 postpartum. Litters were then placed into room air from Day 14/0 through Day 14/6 (days 14-20 postpartum). Additionally on Day 14/0, each pup was randomly assigned as oxygen-exposed controls, vehicle treated, or drug-treated at 1.5, 5, 10 mg/kg, p.o., BID. At Day 14/6 (20 days postpartum), all animals in both studies were euthanized and retina whole mounts were prepared as described in Example 1 above.

[8] = NDM and DM groups, oral gavage, 2 weeks

## Cc1ccc(F)c(NC(=O)Nc2ccc(-c3cccc4[nH]nc(N)c34)cc2)c1 [Compound 86, N-[4-[3-amino-1H-indazol-4-yl]phenyl]-N′-(2-fluoro-5-methylphenyl)urea]
[1]
  effect on existing laser-induced CNV (in words, FIG. 4): induces regression
[2]
  regression of existing CNV (in words): did not show a significant regression
[3]; 0.3% RTKi, intravitreal
  difference in CNV versus vehicle injected eyes (in words): marginal statistical difference
[3]; single intravitreal injection
  effect on laser-induced CNV (in words, FIG. 3): inhibits
[4]; oral gavage
  effect on laser-induced CNV (in words, FIG. 6): inhibits
[4]; 3 mg/kg/day oral gavage
  inhibition of CNV (in words): no significant inhibition
[4]; 20 mg/kg/d oral gavage
  inhibition of CNV (in words): complete inhibition
[5]; NDM (non-diabetic) rats, 5 mg/kg/d oral gavage
  RVP (in words): unchanged
[5]; [8]
  systemic or ERG side effects: no observed systemic or ERG side effects
  tolerability of oral treatment: well tolerated
[6]; 0.1% treated eyes, intravitreal
  efficacy against preretinal NV (in words): Efficacy was not observed
[6]; single intravitreal injection
  effect on preretinal neovascularization (in words, FIG. 1): inhibits
[7]; 3 mg/kg/day p.o.
  decrease in NV (in words): did not have a significant decrease
[7]; 20 mg/kg/day p.o.
  inhibition of preretinal NV (in words): complete inhibition
[7]; oral gavage
  effect on preretinal neovascularization (in words, FIG. 2): prevents
